According to PubChem BioAssay AID248 (DTP/NCI, 2004):
“And” between values parts separate entries of the source, which are not always exact repeats. Identical values can stand only once. Toxic doses and inconclusive results are not listed. No stated cut-off is given here; in the data, active means T/C of 150% or more; inactive means T/C below 125%. Square brackets hold non-standard residues; d marks the D form. Peptide text beside a SMILES is read from it. * marks the point of attachment. ξ: configuration not given here. Boc = CC(C)(C)OC(=O)*; ξP = O=C(O)C1CCCN1

System: L1210 leukemia ip in BDF1 mice, survival T/C
Assay: NCI In Vivo Anticancer Drug Screen. Data for tumor model L1210 Leukemia (intraperitoneal) in B6D2F1 (BDF1) mice
Conditions: endpoint: mean survival time, higher = longer survival
Procedure, shortened: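 Transplanted-tumor mice were given test agent; controls received vehicle only. Survival readings from the two groups were divided (treated over control).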

[1] = dose: 100.0 mg/kg/injection, schedule: Q04DX003 (ip), vehicle: saline with Tween-80
[2] = dose: 200.0 mg/kg/injection, schedule: Q04DX003 (ip), vehicle: saline with Tween-80
[3] = dose: 400.0 mg/kg/injection, schedule: Q04DX003 (ip), vehicle: saline with Tween-80
[4] = dose: 100.0 mg/kg/injection, schedule: Q01DX009 (ip), vehicle: Klucel (hydroxypropylcellulose) (HPC)
[5] = dose: 200.0 mg/kg/injection, schedule: Q01DX009 (ip), vehicle: Klucel (hydroxypropylcellulose) (HPC)
[6] = dose: 400.0 mg/kg/injection, schedule: Q01DX009 (ip), vehicle: Klucel (hydroxypropylcellulose) (HPC)
[7] = dose: 100.0 mg/kg/injection, schedule: Q04DX003 (ip), vehicle: Klucel (hydroxypropylcellulose) (HPC)
[8] = dose: 200.0 mg/kg/injection, schedule: Q04DX003 (ip), vehicle: Klucel (hydroxypropylcellulose) (HPC)
[9] = dose: 400.0 mg/kg/injection, schedule: Q04DX003 (ip), vehicle: Klucel (hydroxypropylcellulose) (HPC)
[10] = dose: 100.0 mg/kg/injection, schedule: Q01DX009 (ip), vehicle: saline with Tween-80
[11] = dose: 200.0 mg/kg/injection, schedule: Q01DX009 (ip), vehicle: saline with Tween-80
[12] = dose: 400.0 mg/kg/injection, schedule: Q01DX009 (ip), vehicle: saline with Tween-80
[13] = dose: 100.0 mg/kg/injection, schedule: Q01DX001 (ip), vehicle: saline
[14] = dose: 200.0 mg/kg/injection, schedule: Q01DX001 (ip), vehicle: saline
[15] = dose: 400.0 mg/kg/injection, schedule: Q01DX001 (ip), vehicle: saline
[16] = dose: 100.0 mg/kg/injection, schedule: Q01DX001 (ip), vehicle: other
[17] = dose: 200.0 mg/kg/injection, schedule: Q01DX001 (ip), vehicle: other
[18] = dose: 400.0 mg/kg/injection, schedule: Q01DX001 (ip), vehicle: other
[19] = dose: 100.0 mg/kg/injection, schedule: Q04DX002 (ip), vehicle: saline
[20] = dose: 200.0 mg/kg/injection, schedule: Q04DX002 (ip), vehicle: saline

Measured: T/C

OCC1(Br)CCC(Br)(CO)CC1 (centres undefined)
inactive: dose: 100.0 mg/kg/injection, schedule: Q04DX002 (ip), vehicle: Klucel (hydroxypropylcellulose) (HPC) 103 % of control | [1] 104 % of control | dose: 200.0 mg/kg/injection, schedule: Q04DX002 (ip), vehicle: Klucel (hydroxypropylcellulose) (HPC) 111 % of control | [2] 98 % of control | dose: 400.0 mg/kg/injection, schedule: Q04DX002 (ip), vehicle: Klucel (hydroxypropylcellulose) (HPC) 107 % of control | [3] 96 % of control

CC(N)CCCO (centres undefined)
inactive: dose: 5.0 mg/kg/injection, schedule: Q01DX001 (ip), vehicle: saline 103 % of control | dose: 10.0 mg/kg/injection, schedule: Q01DX001 (ip), vehicle: saline 97 % of control | dose: 20.0 mg/kg/injection, schedule: Q01DX001 (ip), vehicle: saline 103 % of control | dose: 40.0 mg/kg/injection, schedule: Q01DX001 (ip), vehicle: saline 101 % of control | dose: 80.0 mg/kg/injection, schedule: Q01DX001 (ip), vehicle: saline 103 % of control

OCC1OC(n2nc(Cl)c3ccccc32)C(O)C1O (centres undefined)
inactive: dose: 50.0 mg/kg/injection, schedule: Q01DX005 (ip), vehicle: other 105 % of control | dose: 100.0 mg/kg/injection, schedule: Q01DX005 (ip), vehicle: other 102 % of control | dose: 200.0 mg/kg/injection, schedule: Q01DX005 (ip), vehicle: other 102 % of control

ClC(Cl)(Cl)c1cccc(-c2nc(NCCCN3CCCC3)nc(C(Cl)(Cl)Cl)n2)c1
inactive: [4] 102 % of control | [5] 100 % of control | [6] 86 % of control

CCOc1ccc(/C=C2\N=C(c3ccccc3)OC2=O)cc1
inactive: [4] 98 % of control | [7] 100 % of control | [5] 88 % of control | [8] 100 % of control | [6] 93 % of control | [9] 98 % of control

O=Cc1ccc([N+](=O)[O-])s1
inactive: [10] 101 % of control | [1] 102 % of control | [11] 97 % of control | [2] 110 % of control | [12] 101 % of control | [3] 121 % of control

Clc1ccc2nc(Cl)c(Cl)nc2c1
inactive: [7] 91 % of control | [8] 96 % of control

OCC1OCOC2COCOC12 (centres undefined)
inactive: [10] 94 % of control | [11] 98 % of control | [12] 104 % of control

C#CCn1c(=O)c2c(ncn2C)n(C)c1=O
inactive: dose: 6.25 mg/kg/injection, schedule: Q04DX003 (ip), vehicle: saline 100 % of control

Cc1cc(C)c(I)c(C(=O)O)c1
inactive: [1] 95 % of control | [2] 104 % of control | [3] 104 % of control

O=C(NC12CC3CC(CC(C3)C1)C2)C(O)C(O)C(O)C(O)CO (centres undefined)
inactive: [13] 110 % of control | [14] 100 % of control | [15] 100 % of control

CCC(C)C(C#N)(CCN(C)C)Cc1cccc2ccccc12 (centres undefined)
inactive: dose: 25.0 mg/kg/injection, schedule: Q04DX003 (ip), vehicle: Klucel (hydroxypropylcellulose) (HPC) 97 % of control | dose: 50.0 mg/kg/injection, schedule: Q04DX003 (ip), vehicle: Klucel (hydroxypropylcellulose) (HPC) 92 % of control | [4] 100 % of control | [7] 103 % of control

CC(C)C1CCC(NC(=O)Nc2ccccc2)CC1 (centres undefined)
inactive: dose: 25.0 mg/kg/injection, schedule: Q01DX009 (ip), vehicle: saline with Tween-80 93 % of control | dose: 25.0 mg/kg/injection, schedule: Q04DX003 (ip), vehicle: saline with Tween-80 97 % of control | dose: 50.0 mg/kg/injection, schedule: Q01DX009 (ip), vehicle: saline with Tween-80 95 % of control | dose: 50.0 mg/kg/injection, schedule: Q04DX003 (ip), vehicle: saline with Tween-80 101 % of control | dose: 100.0 mg/kg/injection, schedule: Q01DX001 (ip), vehicle: Klucel (hydroxypropylcellulose) (HPC) 111 % of control | [10] 88 % of control | [7] 94 % of control | [1] 100 % of control and 106 % of control | dose: 200.0 mg/kg/injection, schedule: Q01DX001 (ip), vehicle: Klucel (hydroxypropylcellulose) (HPC) 101 % of control | [8] 101 % of control | dose: 400.0 mg/kg/injection, schedule: Q01DX001 (ip), vehicle: Klucel (hydroxypropylcellulose) (HPC) 103 % of control | [9] 94 % of control

O=C(Cl)C1CCCCC1
inactive: dose: 6.25 mg/kg/injection, schedule: Q01DX015 (ip), vehicle: saline 93 % of control | dose: 12.5 mg/kg/injection, schedule: Q01DX015 (ip), vehicle: saline 89 % of control | dose: 25.0 mg/kg/injection, schedule: Q01DX015 (ip), vehicle: saline 93 % of control and 96 % of control | dose: 50.0 mg/kg/injection, schedule: Q01DX015 (ip), vehicle: saline 90 % of control

CN(C(=O)N(C)S(=O)(=O)c1ccccc1)S(=O)(=O)c1ccccc1
inactive: dose: 75.0 mg/kg/injection, schedule: Q04DX003 (ip), vehicle: Klucel (hydroxypropylcellulose) (HPC) 100 % of control | dose: 150.0 mg/kg/injection, schedule: Q04DX003 (ip), vehicle: Klucel (hydroxypropylcellulose) (HPC) 101 % of control | dose: 300.0 mg/kg/injection, schedule: Q04DX003 (ip), vehicle: Klucel (hydroxypropylcellulose) (HPC) 94 % of control

CCS(=O)(=O)c1ccc(NC(=O)OC2CCCCCCC2)cc1
inactive: [16] 93 % of control | [17] 93 % of control | [18] 93 % of control

O=C(O)c1c(F)ccc([N+](=O)[O-])c1F
inactive: [19] 108 % of control | [20] 103 % of control

OC(c1ccccc1)C(c1ccccc1)N1CC1 (centres undefined)
inactive: dose: 75.0 mg/kg/injection, schedule: Q01DX001 (ip), vehicle: carboxymethylcellulose (CMC) 93 % of control | dose: 150.0 mg/kg/injection, schedule: Q01DX001 (ip), vehicle: carboxymethylcellulose (CMC) 92 % of control | dose: 300.0 mg/kg/injection, schedule: Q01DX001 (ip), vehicle: carboxymethylcellulose (CMC) 92 % of control

CCCCN(C)CCNc1cc(C)nc(/N=C(\N)Nc2ccc(Cl)c(Cl)c2)n1
inactive: dose: 18.75 mg/kg/injection, schedule: Q01DX009 (ip), vehicle: Klucel (hydroxypropylcellulose) (HPC) 103 % of control | dose: 37.5 mg/kg/injection, schedule: Q01DX009 (ip), vehicle: Klucel (hydroxypropylcellulose) (HPC) 97 % of control

COc1cc2c(cc1OC)-c1cc3cc(OC)c(OC)cc3c(CCC(=O)O)[n+]1CC2 (tested in a mixture with another compound)
inactive: [19] 117 % of control | [20] 103 % of control | dose: 400.0 mg/kg/injection, schedule: Q04DX002 (ip), vehicle: saline 109 % of control

Clc1ccc(CNc2ncnc3[nH]ncc23)cc1
inactive: [16] 100 % of control | dose: 100.0 mg/kg/injection, schedule: Q04DX003 (ip), vehicle: other 104 % of control | [17] 106 % of control | dose: 200.0 mg/kg/injection, schedule: Q04DX003 (ip), vehicle: other 113 % of control | [18] 108 % of control | dose: 400.0 mg/kg/injection, schedule: Q04DX003 (ip), vehicle: other 103 % of control

CC(=O)Nc1ccc(/C=N\Nc2ccccn2)cc1
inactive: [13] 89 % of control | [14] 100 % of control | [15] 93 % of control

C=CCCCCCCCCC(=O)NC[n+]1cccc(O)c1
inactive: [1] 87 % of control

COC(=O)C1CCCN1C(=O)CNC(=O)OC(C)(C)C (stereo not drawn) (Boc-Gly-[ξP]-OMe)
inactive: [13] 103 % of control | [14] 97 % of control | [15] 94 % of control

C1CC[C@@H]2NCCC[C@H]2C1
inactive: dose: 100.0 mg/kg/injection, schedule: Q01DX001 (ip), vehicle: carboxymethylcellulose (CMC) 103 % of control | dose: 200.0 mg/kg/injection, schedule: Q01DX001 (ip), vehicle: carboxymethylcellulose (CMC) 92 % of control

CCC/C(=N\NC(N)=O)C(OC)OC
inactive: [16] 94 % of control | [17] 105 % of control | [18] 92 % of control

N#CCCN/N=C\c1ccc2c(c1)OCO2
inactive: dose: 50.0 mg/kg/injection, schedule: Q01DX001 (ip), vehicle: saline 95 % of control | [13] 97 % of control | [14] 95 % of control | [15] 95 % of control
